Columns and labels:
[1] = tested on: Smo-mEos2 localization to the primary cilium in NIH3T3 cells; assay: Smo-mEos2 ciliary localization in NIH3T3/Smo-mEos2 cells (immunofluorescence); assay type: cell-based; conditions: Hh ligands not present
Protocol: NIH3T3/Smo‐mEos2 cells (Kim et al, 2014) (a gift from P. Beachy, SUSM, Stanford, CA, USA) were grown to confluence on coverslips in DMEM (Thermo Fisher Scientific, #31966021) supplemented with 10% FBS (Thermo Fisher Scientific, #10270106), 1% penicillin/streptomycin (Thermo Fisher Scientific, #15140122) and 1% MEM non‐essential amino acids (Thermo Fisher Scientific, #11140050) at 37°C. For SAG, 3‐BP and 2‐DG treatment, cells were then shifted to serum‐deprived medium containing 0.5% FBS instead of 10% FBS and incubated for 24 h with 100 nM SAG (Merck, #566660), 25 mM of 2‐DG (ROTH, #CN96.3) or 15 μM 3‐BP (Sigma‐Aldrich, #16490‐10G), respectively, or without any compound at 37°C. […]
(§1) Only ring glands and wing discs that were processed in parallel, imaged using the same microscope settings, and properly mounted were used for quantifications. For quantification of immunohistochemical staining of CD8::GFP in ring glands, the mean pixel intensity of two regions of interest of 25 × 25 μm per ring gland was determined using ROI manager, and the average of these was used for the statistical analysis. For quantification of compartment size, wing disc folds served as morphological landmarks to outline the region of the wing pouch and the D/V boundary. The area of dorsal and ventral compartment was then determined using ROI manager. […] The mean grey value was measured using ROI manager. […]

[2] = tested on: PAC-NAE uptake into wing discs; assay: Lipophorin-mediated PAC-NAE uptake in wing discs; assay type: cell-based, Drosophila
Protocol: The isolation procedure of Lipophorin (Lpp) particles was adapted from Panakova et al (2005). Briefly, 10 ml feeding third‐instar larvae were first washed with water and then with TNE buffer (100 mM Tris–HCl pH 7.5, 150 mM NaCl, 0.2 mM EGTA, cOmplete™ protease inhibitor cocktail (Roche, #000000011697498001)). All following steps were conducted at 4 °C (unless stated otherwise). Larvae were homogenized in TNE buffer in a tissue grinder with a loose pestle, and the homogenate was centrifuged for 10 min at 1,000 × g and afterwards for 3 h at 142,000 × g. The resulting supernatant (10 ml) was mixed with 40 μl 10 mM PAC‐NAE (EtOH solution) and sonicated for 5 min. […]
as §1, with “A/P boundary” for “mean grey value”, “determined according to anti‐Ci155 or anti‐Ptc co‐immunostaining.” for “measured using ROI manager.”

[3] = tested on: plasma membrane potential of wing discs; assay: Membrane potential assay with DiBAC4(3) in wing discs; assay type: cell-based, Drosophila; conditions: wing discs incubated with 1 μM gramicidin A for 30 min at 29°C
Protocol: To investigate the plasma membrane potential, we used the membrane potential‐sensitive dye DiBAC4(3) (Thermo Fisher Scientific, #B438). Wing discs from up‐crawling third‐instar larvae were dissected in Grace's medium supplemented with 5% FBS and 20 nM 20‐hydroxyecdysone (full medium) (Dye et al, 2017), and incubated with 500 nM DiBAC4(3) in full medium for 15 min at 29°C. After washing twice with full medium, wing discs were mounted and imaged immediately. A higher fluorescence intensity of DiBAC4(3) indicates depolarization of the plasma membrane. […]
Only ring glands and wing discs that were processed in parallel, imaged using the same microscope settings, and properly mounted were used for quantifications. For quantification of immunohistochemical staining of CD8::GFP in ring glands, the mean pixel intensity of two regions of interest of 25 × 25 μm per ring gland was determined using ROI manager, and the average of these was used for the statistical analysis. For quantification of compartment size, wing disc folds served as morphological landmarks to outline the region of the wing pouch and the D/V boundary. The area of dorsal and ventral compartment was then determined using ROI manager. […] The A/P boundary was determined according to anti‐Ci155 or anti‐Ptc co‐immunostaining. […] The mean grey value was measured using ROI manager. […] The integrated density was measured using ROI manager. […]

[4] = tested on: ATP levels in ubi-AT1.03NL wing discs; assay: Measurement of ATP using FRET-based ATP sensor AT1.03NL in explanted wing discs; assay type: cell-based, Drosophila; conditions: explanted wing discs treated with antimycin A for 2 h
Protocol: Wing discs from up‐crawling third‐instar larvae were dissected within 10 min in Grace's medium supplemented with 5% FBS and 20 nM 20‐hydroxyecdysone (Dye et al, 2017). Dissected wing discs were mounted with their basal side up on glass‐bottom dishes (MatTek Corporation, #P35G‐1.0‐20‐C) with a double‐sided tape spacer and immobilized with a Whatman™ Cyclopore™ track‐etched polycarbonate membrane filter (GE Healthcare Life Sciences, #7062‐2513). Imaging of ubi‐AT1.03NL wing discs was performed on an Olympus IX81 microscope equipped with Yokogawa spinning disk (CSU‐W1, Yokogawa) and Ixon Ultra EMCCD camera (Andor). The sensitized emission method was used to measure FRET. Wing discs were excited with a 445 nm laser twice in a sequential manner. Upon first excitation, emission of mse‐CFP was collected using an HQ 480/40 bandpass filter. Upon second excitation, emission of cpVenus‐FRET was collected using an HQ 542/27 filter. The emission of cpVenus‐FRET has contributions from the energy transfer from mse‐CFP and bleed‐through of mse‐CFP into the HQ 542/27 filter. […]
A custom‐written MATLAB (MathWorks) script was used to estimate the FRET efficiency from the fluorescence images. […]
The FRET efficiency (η) was calculated as, η=IFRET/ID+IFRET […]

O=CC[C@@H](O)[C@H](O)[C@H](O)CO [2-DG, 2‐deoxyglucose]
Smo-mEos2 accumulation in the primary cilium [1]: accumulates in the primary cilium

C#CCCCC1(CCCCCCCCC(=O)NCCO)N=N1 [PAC-NAE]
PAC-NAE accumulation in wing disc tissue ([2]; knock-down of either ecd or Gapdh in the dorsal compartment, 1.5 μM PAC-NAE labelled Lpp particles): autonomously reduced

gramicidin A
Plasma membrane potential (DiBAC4(3) signal intensity) [3]: dissipate the plasma membrane potential | Uptake of PAC-NAE ([2]; wing discs incubated with 1 μM gramicidin A, compared to control discs): strongly reduces

CCCCCC[C@H]1C(=O)O[C@H](C)[C@H](NC(=O)c2cccc(NC=O)c2O)C(=O)O[C@@H](C)[C@@H]1OC(=O)CC(C)C [antimycin A]
FRET signal of ubi-AT1.03NL (cellular ATP levels) [4]: strongly reduced

O=C(O)C(=O)CBr [3-BP, 3‐bromopyruvate]
Smo-mEos2 accumulation in the primary cilium [1]: accumulates in the primary cilium
